Measured values: patent publication US20250215008A1, “PREPARATION AND USE OF QUINAZOLINONE DERIVATIVE AS KINASE INHIBITOR” (Haisco Pharmaceutical Group Co., Ltd., priority 2022, published 2025)
Read-outs that look alike come from different tables or passages of the source.

Legend:
[1] = Mouse pharmacokinetic test; assay type: in vivo, ICR mice; details: for Kp: brain/plasma, read-out: brain/plasma ratio; for Vd: read-out: Vdss
Method: (§1) • 1.1 Experimental animals: male ICR mice, 20-25 g, 12 mice/compound, purchased from Chengdu Ddossy Experimental Animals Co., Ltd. • 1.2 Experimental design: on the day of the test, 12 ICR mice were randomly grouped according to their body weights. The animals were fasted with water available for 12 to 14 h one day before the administration and were fed 4 h after the administration.
Before and after administration, 0.06 mL of blood was taken from the orbit under isoflurane anesthesia and placed in an EDTAK2 centrifuge tube for centrifugation at 5000 rpm at 4° C. for 10 min, followed by plasma collection. The blood collection time points for the intravenous administration group and intragastric administration group were 0, 5 min, 15 min, 30 min, 1 h, 2 h, 4 h, 7 h and 24 h. Before analysis and detection, all samples were stored at −80° C., and a quantitative analysis of samples was performed using LC-MS/MS.

A375 cells = experiment: A375 cell proliferation inhibition; assay type: cell-based; details: read-out: IC50/nM, inhibitory activity on A375 cells
Method: A375 cells (ATCC, CRL-1619) were cultured in DMEM complete medium (+10% FBS) in a CO2 incubator at 37° C. for 48 h. The cells were trypsinized and counted, and then the density was adjusted to 1.67×10^4 cells/mL. 90 μL (1500 cells) of cells were inoculated into each well of a 96-well transparent bottom plate, and the plate was transferred to a CO2 incubator and the cells were cultured overnight at 37° C. After the cells were incubated overnight, 10 μL of the diluted compound (final concentration starting from 10 μM, 3-fold dilution, 11 concentrations) was added to each well using a multi-channel pipette. The positive control was a serum-free medium containing DMSO. After mixing evenly, the cells were placed in a CO2 incubator at 37° C. for 72 h. After the incubation, the CellCounting-Lite®2.0 kit detection solution (Vazyme, DD1101-03) was taken out and returned to room temperature. 100 μL of CellCounting-Lite2.0 detection solution was added to each well, the plate was sealed with a sealing film, and the plate was placed on a shaker for shaking for 15 min (the whole process should be kept away from light). The Luminescence module of the microplate reader (BMG LRBTECH) was used to detect the fluorescence signal value LUM of each well. The formula
[formula] • was used to calculate the inhibition rate of the compound. The Graphpad software log (inhibitor) vs. response—Variable slope (four parameters) equation was used to perform fitting analysis and calculate the IC50 value of the sample. The ordinate of the data is the percentage of inhibition rate, and the abscissa is the logarithm of the sample concentration (Log10).

[2] = in vivo; cited from earlier work
BCRP = BCRP (Homo sapiens (Human), UniProt Q9UNQ0); details: cited from earlier work
MDR1 = MDR1 (Homo sapiens (Human), UniProt P08183); details: cited from earlier work
[3] = Beagle dog pharmacokinetic test; assay type: in vivo, beagle dogs; details: for F: beagle dog
Method: • Experimental animals: male beagle dogs, about 8-11 kg, 6 beagle dogs/compound, purchased from Beijing Marshall Biotechnology Co., Ltd. • Experimental method: on the day of the experiment, 6 beagle dogs were randomly grouped according to their body weights. The animals were fasted with water available for 12 to 14 h one day before the administration and were fed 4 h after the administration. Administration was performed as per Table 1.
(DMA: dimethylacetamide; Solutol: polyethylene glycol-15-hydroxystearate; Saline: physiological saline; MC: Methylcellulose solution) Before and after the administration, 1 ml of blood was taken from the jugular veins or limb veins, and placed in an EDTAK2 centrifuge tube. Centrifugation was performed at 5000 rpm at 4° C. for 10 min, and plasma was collected. The blood collection time points for the intravenous group and intragastric group were both 0 min, 5 min, 15 min, 30 min, 1 h, 2 h, 4 h, 6 h, 8 h, 10 h, 12 h, 24 h, 48 h, and 72 h. Before analysis and detection, all samples were stored at −80° C. The samples were analyzed quantitatively by LC-MS/MS.

Rat pharmacokinetic test = assay type: in vivo, SD rats
Method: as §1, with “5.1” for “1.1”, “SD rats, about 220” for “ICR mice, 20-25”, “6-8 weeks old, 6 rats/compound,” for “12 mice/compound,”, “5.2” for “1.2”, “experiment, 6 SD rats” for “test, 12 ICR mice”, “weights; the” for “weights. The”
Before and after the administration, 0.1 ml of blood was taken from the orbit of the animals under isoflurane anesthesia and placed in an EDTAK2 centrifuge tube. The blood was centrifuged at 5000 rpm and 4° C. for 10 min to collect plasma. Blood sampling time points for the intravenous administration group: 0, 5 min, 15 min, 30 min, 1 h, 2 h, 4 h, 6 h, 8 h, and 24 h; blood sampling time points for the intragastric administration group: 0, 5 min, 15 min, 30 min, 1 h, 2 h, 4 h, 6 h, 8 h and 24 h. Before analysis and detection, all samples were stored at −80° C.

[4] = male, ICR, po, mouse, i.g. 10 mg/kg
[5] = male, ICR, iv, mouse plasma, i.v. 2.5 mg/kg
[6] = male, ICR, iv, mouse plasma, i.v. 2.5 mg/kg, read-out: AUC0-t
[7] = male, ICR, po, mouse plasma, i.g. 10 mg/kg
[8] = male, ICR, po, mouse plasma, i.g. 10 mg/kg, read-out: AUC0-t
[9] = beagle dog plasma, i.v. 0.5 mg/kg
[10] = rat plasma, intragastric administration 10 mg/kg
[11] = rat plasma, intravenous administration 2.5 mg/kg

Chain of MDR1 (P08183 whole entry, species assumed): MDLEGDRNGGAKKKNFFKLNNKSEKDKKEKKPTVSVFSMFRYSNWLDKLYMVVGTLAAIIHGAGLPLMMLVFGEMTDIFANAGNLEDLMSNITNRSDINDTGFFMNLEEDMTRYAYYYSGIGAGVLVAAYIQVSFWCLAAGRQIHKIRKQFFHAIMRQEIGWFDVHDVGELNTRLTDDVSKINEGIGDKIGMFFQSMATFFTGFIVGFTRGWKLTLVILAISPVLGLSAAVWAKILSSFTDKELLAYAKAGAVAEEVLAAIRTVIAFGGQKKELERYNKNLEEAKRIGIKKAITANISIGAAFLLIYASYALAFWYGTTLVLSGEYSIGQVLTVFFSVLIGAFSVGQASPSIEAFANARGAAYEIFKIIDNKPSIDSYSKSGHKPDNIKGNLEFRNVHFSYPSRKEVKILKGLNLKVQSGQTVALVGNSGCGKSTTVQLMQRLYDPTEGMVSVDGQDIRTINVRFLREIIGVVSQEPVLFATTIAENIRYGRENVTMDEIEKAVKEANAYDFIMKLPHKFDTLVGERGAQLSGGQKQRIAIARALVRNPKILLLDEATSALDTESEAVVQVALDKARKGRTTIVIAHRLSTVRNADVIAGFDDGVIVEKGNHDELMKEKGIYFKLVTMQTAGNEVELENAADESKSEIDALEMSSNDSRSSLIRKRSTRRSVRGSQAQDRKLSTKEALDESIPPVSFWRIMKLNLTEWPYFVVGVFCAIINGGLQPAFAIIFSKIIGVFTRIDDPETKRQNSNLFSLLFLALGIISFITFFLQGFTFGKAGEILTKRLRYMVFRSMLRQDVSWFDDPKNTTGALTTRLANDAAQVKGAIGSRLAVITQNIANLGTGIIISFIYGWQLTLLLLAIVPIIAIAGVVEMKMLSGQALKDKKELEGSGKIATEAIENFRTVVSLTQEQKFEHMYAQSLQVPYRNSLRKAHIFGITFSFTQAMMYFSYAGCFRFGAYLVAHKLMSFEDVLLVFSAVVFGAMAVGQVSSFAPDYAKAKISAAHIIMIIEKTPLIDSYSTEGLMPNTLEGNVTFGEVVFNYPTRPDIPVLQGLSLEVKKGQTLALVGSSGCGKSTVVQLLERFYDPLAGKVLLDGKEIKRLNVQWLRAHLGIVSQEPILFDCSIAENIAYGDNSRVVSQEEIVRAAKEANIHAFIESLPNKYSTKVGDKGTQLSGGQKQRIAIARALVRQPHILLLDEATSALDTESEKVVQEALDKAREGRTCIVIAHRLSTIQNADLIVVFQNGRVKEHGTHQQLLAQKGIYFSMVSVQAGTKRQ
Chain of BCRP (Q9UNQ0 whole entry, species assumed): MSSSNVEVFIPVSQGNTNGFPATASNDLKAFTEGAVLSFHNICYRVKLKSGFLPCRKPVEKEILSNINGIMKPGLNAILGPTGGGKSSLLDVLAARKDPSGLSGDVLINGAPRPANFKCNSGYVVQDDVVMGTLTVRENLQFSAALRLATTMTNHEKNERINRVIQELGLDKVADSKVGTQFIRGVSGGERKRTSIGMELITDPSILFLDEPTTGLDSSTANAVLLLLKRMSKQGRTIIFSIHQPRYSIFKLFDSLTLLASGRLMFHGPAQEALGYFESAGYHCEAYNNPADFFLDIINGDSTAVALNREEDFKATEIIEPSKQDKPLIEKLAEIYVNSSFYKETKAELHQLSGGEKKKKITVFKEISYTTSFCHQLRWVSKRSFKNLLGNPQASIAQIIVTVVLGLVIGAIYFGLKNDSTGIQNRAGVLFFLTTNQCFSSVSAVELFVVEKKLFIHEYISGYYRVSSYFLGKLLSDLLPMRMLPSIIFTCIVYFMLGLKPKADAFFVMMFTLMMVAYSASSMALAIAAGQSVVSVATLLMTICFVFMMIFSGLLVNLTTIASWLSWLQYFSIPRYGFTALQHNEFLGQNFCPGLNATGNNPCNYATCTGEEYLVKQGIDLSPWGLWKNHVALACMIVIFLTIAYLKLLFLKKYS

Structure (SMILES)	F ([1]; mouse, i.g. 10 mg/kg) [%]	IC50 (A375 cells; 72 h) [nM]	Kp [1, 4]	clearance [1, 5] [mL/min/kg]	half-life [1, 5] [h]	AUC(0-t) [1, 6] [µg·h/mL]	Vd [1, 5] [L/kg]	half-life [1, 7] [h]	AUC(0-t) [1, 8] [µg·h/mL]	IC50 (A375 cells; Homo sapiens, A-375, 72 h) [nM]	further results
N#Cc1c(NS(=O)(=O)N2CC3(CC3)C2)ccc(F)c1Oc1ccc2ncn3ccnc3c2c1 [Compound 49]		≤ 10									
CCCS(=O)(=O)Nc1ccc(F)c(C(=O)c2c[nH]c3ncc(-c4ccc(Cl)cc4)cc23)c1F [Vemurafenib]											total brain-to-plasma ratio [2]: 0.004; BCRP efflux ratio (BCRP): 495; MDR1 efflux ratio (MDR1): 83
N#Cc1c(NS(=O)(=O)N2CC3(CCC3)C2)ccc(F)c1Oc1ccc2ncn(C3COC3)c(=O)c2c1 [Compound 33]		≤ 10									
COn1cnc2ccc(Oc3c(F)ccc(NS(=O)(=O)N4CC5(CCC5)C4)c3C#N)cc2c1=O [Compound 7]	92.6		0.0425	0.144	9.79	240	0.111	13.7	792		
N#Cc1c(NS(=O)(=O)N2CC3(CCC3)C2)cc(F)c(F)c1Oc1ccc2ncn(CCF)c(=O)c2c1 [Compound 39]		≤ 10									AUC(0-t) ([3]; beagle dog plasma, i.g. 3 mg/kg): 84.281 µg·h/mL; AUC(0-t) [3, 9]: 31.095 µg·h/mL; CL [3, 9]: 0.541 mL/min/kg; Vdss [3, 9]: 0.08 L/kg; F ([3]; i.g. 3 mg/kg): 90.3%
N#Cc1c(NS(=O)(=O)N2CC[C@@H](F)C2)cc(F)c(F)c1Oc1ccc2ncn(CCF)c(=O)c2c1 [Compound 51]		≤ 10									
COn1cnc2ccc(Oc3c(F)ccc(NS(=O)(=O)N4CC5(CC5)C4)c3C#N)cc2c1=O [Compound 8]	≥98		0.0173	0.147	8.59	247	0.0941	12.9	1300		
N#Cc1c(NS(=O)(=O)N2CC3(CC3)C2)ccc(F)c1Oc1ccc2ncn(CCF)c(=O)c2c1 [Compound 47]		≤ 10									AUC(0-t) (Rat pharmacokinetic test; [10]): 4256.852 µg·h/mL; T1/2 (Rat pharmacokinetic test; [10]): 60.6 h; AUC(0-t) (Rat pharmacokinetic test; [11]): 1156.844 µg·h/mL; CL (Rat pharmacokinetic test; [11]): 0.036 mL/min/kg; T1/2 (Rat pharmacokinetic test; [11]): 50.9 h; Vdss (Rat pharmacokinetic test; [11]): 0.156 L/kg; F (Rat pharmacokinetic test; rat, intragastric administration 10 mg/kg): 92%
N#Cc1c(NS(=O)(=O)N2CC3(CCC3)C2)ccc(F)c1Oc1ccc2ncn(CC(F)F)c(=O)c2c1 [Compound 10]	83.9		0.0107	0.117	12	272	0.111	11.8	914	≤ 10	F ([3]; i.g. 3 mg/kg): 79.7%; clearance ([3]; male, iv, beagle dog plasma, i.v. 0.5 mg/kg): 0.425 mL/min/kg; AUC(0-t) ([3]; male, iv, beagle dog plasma, i.v. 0.5 mg/kg, read-out: AUC0-t): 40.9 µg·h/mL; Vd ([3]; male, iv, beagle dog plasma, i.v. 0.5 mg/kg, read-out: Vdss): 0.155 L/kg; AUC(0-t) ([3]; male, po, beagle dog plasma, i.g. 3 mg/kg, read-out: AUC0-t): 97.8 µg·h/mL
Cn1cnc2ccc(Oc3c(F)ccc(NS(=O)(=O)N4CC5(CC5)C4)c3C#N)cc2c1=O [Compound 5]	93.6		0.0181	0.0627	30.2	290	0.159	19.2	1080	≤ 10	
N#Cc1c(NS(=O)(=O)N2CC3(CC3)C2)cc(F)c(F)c1Oc1ccc2ncn(CCF)c(=O)c2c1 [Compound 50]		≤ 10									
COn1cnc2ccc(Oc3c(F)ccc(NS(=O)(=O)N4CC[C@@H](F)C4)c3C#N)cc2c1=O [Compound 4]			0.053	0.37	5.27	107	0.147	4.02	282	≤ 10	
Cn1cnc2ccc(Oc3c(F)ccc(NS(=O)(=O)N4CCC5CC54)c3C#N)cc2c1=O (centres unmarked) [Compound 17]										≤ 10	

Second part, led by results:

F ([1]; mouse, i.g. 10 mg/kg) [%]	IC50 (A375 cells; 72 h) [nM]	Kp [1, 4]	clearance [1, 5] [mL/min/kg]	half-life [1, 5] [h]	AUC(0-t) [1, 6] [µg·h/mL]	Vd [1, 5] [L/kg]	half-life [1, 7] [h]	AUC(0-t) [1, 8] [µg·h/mL]	IC50 (A375 cells; Homo sapiens, A-375, 72 h) [nM]	Structure (SMILES)	further results
87.9	≤ 10									Cc1cnc2c3cc(Oc4c(F)ccc(NS(=O)(=O)N5CC6(CCC6)C5)c4C#N)ccc3ncn12 [Compound 44]	AUC(0-t) ([1]; mouse plasma, i.g. 10 mg/kg): 442.783 µg·h/mL; T1/2 ([1]; mouse plasma, i.g. 10 mg/kg): 14.2 h; AUC(0-t) ([1]; mouse plasma, i.v. 2.5 mg/kg): 125.977 µg·h/mL; CL ([1]; mouse plasma, i.v. 2.5 mg/kg): 0.335 mL/min/kg; T1/2 ([1]; mouse plasma, i.v. 2.5 mg/kg): 7.5 h; Vdss ([1]; mouse plasma, i.v. 2.5 mg/kg): 0.135 L/kg; brain/plasma ratio ([1]; mouse, i.g. 10 mg/kg): 0.0162
	≤ 10									N#Cc1c(NS(=O)(=O)N2CC3(CCC3(F)F)C2)ccc(F)c1Oc1ccc2ncn(CC(F)F)c(=O)c2c1 [Compound 42]	
									≤ 10	Cn1cnc2ccc(Oc3c(F)ccc(NS(=O)(=O)N4CC(CF)C4)c3C#N)cc2c1=O [Compound 14]	
									≤ 10	N#Cc1c(NS(=O)(=O)N2CC3(CCC3)C2)ccc(F)c1Oc1ccc2ncn3ccnc3c2c1 [Compound 22]	
	≤ 10									N#Cc1c(NS(=O)(=O)N2CC3(CCC3)C2)cc(F)c(F)c1Oc1ccc2ncn3ccnc3c2c1 [Compound 46]	
	≤ 10									N#Cc1c(NS(=O)(=O)N2CC3(CCC3F)C2)ccc(F)c1Oc1ccc2ncn(CC(F)F)c(=O)c2c1 (single isomer, unassigned) [Compound 40]	
78.1		0.0179	0.119	12.8	266	0.114	8.68	832	≤ 10	N#Cc1c(NS(=O)(=O)N2CC3(CCC3)C2)ccc(F)c1Oc1ccc2ncn(CCF)c(=O)c2c1 [Compound 26]	
